Source: ChEMBL document CHEMBL2413072, “Synthesis and in vitro anticancer studies of novel C-2 arylidene congeners of lantadenes” (2013)

Experiments:
Format in all cases: functional
UACC-62 [1] = assay: Growth inhibition of human UACC62 cells assessed as cell growth at 10 uM by sulforhodamine B assay; conditions: read-out: Activity
SN12C = assay: Growth inhibition of human SN12C cells assessed as cell growth at 10 uM by sulforhodamine B assay; conditions: read-out: Activity
NCI-H23 [2] = assay: Growth inhibition of human NCI-H23 cells assessed as cell growth at 10 uM by sulforhodamine B assay; conditions: read-out: Activity
NCI-H522 [3] = assay: Growth inhibition of human NCI-H522 cells assessed as cell growth at 10 uM by sulforhodamine B assay; conditions: read-out: Activity
HCT-15 = assay: Growth inhibition of human HCT15 cells by sulforhodamine B assay
MDA-MB-231 [4] = assay: Growth inhibition of human MDA-MB-231 cells by sulforhodamine B assay
MDA-MB-468 [5] = assay: Growth inhibition of human MDA-MB-468 cells assessed as cell growth at 10^-4 M by sulforhodamine B assay; conditions: read-out: Activity
NCI-H23 [6] = assay: Growth inhibition of human NCI-H23 cells assessed as growth inhibition at 10 uM by sulforhodamine B assay; conditions: read-out: GI
TK-10 = assay: Growth inhibition of human TK10 cells assessed as cell growth at 10 uM by sulforhodamine B assay; conditions: read-out: Activity
A549 [7] = assay: Growth inhibition of human A549/ATCC cells assessed as cell growth at 10^-8 M by sulforhodamine B assay; conditions: read-out: Activity
MDA-MB-468 [8] = assay: Growth inhibition of human MDA-MB-468 cells by sulforhodamine B assay
HCT-116 = assay: Growth inhibition of human HCT116 cells assessed as cell growth at 10^-6 M by sulforhodamine B assay; conditions: read-out: Activity
SF-268 = assay: Growth inhibition of human SF268 cells assessed as cell growth at 10 uM by sulforhodamine B assay; conditions: read-out: Activity
SF-539 = assay: Growth inhibition of human SF539 cells assessed as cell growth at 10 uM by sulforhodamine B assay; conditions: read-out: Activity
SR = assay: Growth inhibition of human SR cells by sulforhodamine B assay
RPMI-8226 = assay: Growth inhibition of human RPMI8226 cells assessed as growth inhibition at 10 uM by sulforhodamine B assay; conditions: read-out: GI
OVCAR-8 = assay: Growth inhibition of human OVCAR8 cells assessed as cell growth at 10 uM by sulforhodamine B assay; conditions: read-out: Activity
MDA-MB-231 [9] = assay: Growth inhibition of human MDA-MB-231 cells assessed as cell growth at 10^-8 M by sulforhodamine B assay; conditions: read-out: Activity
OVCAR-3 [10] = assay: Growth inhibition of human OVCAR3 cells assessed as growth inhibition at 10 uM by sulforhodamine B assay; conditions: read-out: GI
[11] = Growth inhibition of human EKVX cells assessed as cell growth at 10 uM by sulforhodamine B assay; conditions: read-out: Activity
[12] = Growth inhibition of human HCC2998 cells assessed as cell growth at 10^-6 M by sulforhodamine B assay; conditions: HCC 2998, read-out: Activity
UACC-62 [13] = assay: Growth inhibition of human UACC62 cells assessed as growth inhibition at 10 uM by sulforhodamine B assay; conditions: read-out: GI
UO-31 = assay: Growth inhibition of human UO31 cells assessed as cell growth at 10^-7 M by sulforhodamine B assay; conditions: read-out: Activity
[14] = Growth inhibition of human HCC2998 cells assessed as cell growth at 10 uM by sulforhodamine B assay; conditions: HCC 2998, read-out: Activity
NCI-H522 [15] = assay: Growth inhibition of human NCI-H522 cells assessed as growth inhibition at 10 uM by sulforhodamine B assay; conditions: read-out: GI
NCI-H23 [16] = assay: Growth inhibition of human NCI-H23 cells assessed as cell growth at 10^-7 M by sulforhodamine B assay; conditions: read-out: Activity
OVCAR-3 [17] = assay: Growth inhibition of human OVCAR3 cells assessed as cell growth at 10 uM by sulforhodamine B assay; conditions: read-out: Activity
K562 = assay: Growth inhibition of human K562 cells assessed as cell growth at 10 uM by sulforhodamine B assay; conditions: read-out: Activity
HT-29 = assay: Growth inhibition of human HT-29 cells assessed as cell growth at 10 uM by sulforhodamine B assay; conditions: read-out: Activity
MOLT-4 = assay: Growth inhibition of human MOLT4 cells assessed as cell growth at 10^-7 M by sulforhodamine B assay; conditions: read-out: Activity
MCF7 = assay: Growth inhibition of human MCF7 cells assessed as cell growth at 10 uM by sulforhodamine B assay; conditions: read-out: Activity
LOX IMVI = assay: Growth inhibition of human LOXIMVI cells by sulforhodamine B assay
SK-MEL-5 = assay: Growth inhibition of human SK-MEL-5 cells assessed as cell growth at 10^-4 M by sulforhodamine B assay; conditions: read-out: Activity
[18] = Growth inhibition of human NCI-ADR-RES cells assessed as cell growth at 10 uM by sulforhodamine B assay; conditions: read-out: Activity
NCI-H23 [19] = assay: Growth inhibition of human NCI-H23 cells assessed as cell growth at 10^-4 M by sulforhodamine B assay; conditions: read-out: Activity
Malme-3M = assay: Growth inhibition of human MALME-3M cells assessed as growth inhibition at 10 uM by sulforhodamine B assay; conditions: read-out: GI
BT-549 = assay: Growth inhibition of human BT549 cells assessed as cell growth at 10^-4 M by sulforhodamine B assay; conditions: read-out: Activity
A549 [20] = assay: Growth inhibition of human A549/ATCC cells assessed as cell growth at 10^-6 M by sulforhodamine B assay; conditions: read-out: Activity
NCI-H522 [21] = assay: Growth inhibition of human NCI-H522 cells assessed as cell growth at 10^-4 M by sulforhodamine B assay; conditions: read-out: Activity
T47D = assay: Growth inhibition of human T47D cells by sulforhodamine B assay
CCRF-CEM [22] = assay: Growth inhibition of human CCRF-CEM cells assessed as growth inhibition at 10 uM by sulforhodamine B assay; conditions: read-out: GI
CCRF-CEM [23] = assay: Growth inhibition of human CCRF-CEM cells assessed as cell growth at 10^-4 M by sulforhodamine B assay; conditions: read-out: Activity
[24] = read-out: LC50 (the source's name)
[25] = read-out: pLC50 (the source's name) (converted)

`CC(C)=CC(=O)O[C@@H]1CC(C)(C)C[C@H]2C3=CC[C@@H]4[C@@]5(C)CCC(=O)C(C)(C)[C@@H]5CC[C@@]4(C)[C@]3(C)CC[C@@]12C(=O)O` gave a growth at 10 µM (UACC-62 [1]) of 57.8%, a growth at 10 µM (SN12C) of 42.6% and a growth at 10 µM (NCI-H23 [2]) of 53.4%. For the same compound, the growth at 10 µM (NCI-H522 [3]) was 57.3%, the GI50 (HCT-15; read-out: GI50) was 1290 nM and the LC50 (50% lethal concentration) (HCT-15; read-out: LC50) was over 100 µM. It also gave a TGI (HCT-15; read-out: TGI) of 15.6 µM, a GI50 (HCT-15; read-out: pGI50 (converted)) of 1290 nM and an LC50 (50% lethal concentration) (HCT-15; read-out: pLC50 (converted)) of over 100 µM. For the same compound, the TGI (HCT-15; read-out: pTGI (converted)) was 15.5 µM, the GI50 (MDA-MB-231 [4]; read-out: GI50) was 4.03 µM and the CC50 (MDA-MB-231 [4]; [24]) was 71.1 µM. It also gave a TGI (MDA-MB-231 [4]; read-out: TGI) of 21.8 µM, a GI50 (MDA-MB-231 [4]; read-out: pGI50 (converted)) of 4.07 µM and a CC50 (MDA-MB-231 [4]; [25]) of 70.8 µM. It also gave a TGI (MDA-MB-231 [4]; read-out: pTGI (converted)) of 21.9 µM, a growth at 100 µM (MDA-MB-468 [5]) of -37% and an inhibition of growth at 10 µM (NCI-H23 [6]) of 46.6%. For the same compound, the growth at 10 µM (TK-10) was 78.1%, the growth at 0.01 µM (A549 [7]) was 93% and the GI50 (MDA-MB-468 [8]; read-out: GI50) was 2270 nM. It also gave a CC50 (MDA-MB-468 [8]; [24]) of over 100 µM, a TGI (MDA-MB-468 [8]; read-out: TGI) of 13.7 µM and a GI50 (MDA-MB-468 [8]; read-out: pGI50 (converted)) of 2290 nM. The CC50 (MDA-MB-468 [8]; [25]) was over 100 µM, the TGI (MDA-MB-468 [8]; read-out: pTGI (converted)) was 13.8 µM and the growth at 1 µM (HCT-116) was 70%. The growth at 10 µM (SF-268) was 73%, the growth at 10 µM (SF-539) was 65% and the GI50 (SR; read-out: GI50) was 3.75 µM. For the same compound, the CC50 (SR; [24]) was over 100 µM, the TGI (SR; read-out: TGI) was 33.8 µM and the GI50 (SR; read-out: pGI50 (converted)) was 3.72 µM. It also gave a CC50 (SR; [25]) of over 100 µM, a TGI (SR; read-out: pTGI (converted)) of 33.9 µM and an inhibition of growth at 10 µM (RPMI-8226) of 80.4%. The growth at 10 µM (OVCAR-8) was 55.1%, the growth at 0.01 µM (MDA-MB-231 [9]) was 96% and the inhibition of growth at 10 µM (OVCAR-3 [10]) was 38.7%. It also gave a growth at 10 µM [11] of 41.2%, a growth at 1 µM [12] of 88% and an inhibition of growth at 10 µM (UACC-62 [13]) of 42.2%. The growth at 0.1 µM (UO-31) was 91%, the growth at 10 µM [14] was 52.8% and the inhibition of growth at 10 µM (NCI-H522 [15]) was 42.7%. For the same compound, the growth at 0.1 µM (NCI-H23 [16]) was 90%, the growth at 10 µM (OVCAR-3 [17]) was 61.3% and the growth at 10 µM (K562) was 45%. For the same compound, the growth at 10 µM (HT-29) was 57.3%, the growth at 0.1 µM (MOLT-4) was 100% and the growth at 10 µM (MCF7) was 49.3%. For the same compound, the GI50 (LOX IMVI; read-out: GI50) was 6.32 µM, the CC50 (LOX IMVI; [24]) was over 100 µM and the TGI (LOX IMVI; read-out: TGI) was 29.3 µM. It also gave a GI50 (LOX IMVI; read-out: pGI50 (converted)) of 6.31 µM, a CC50 (LOX IMVI; [25]) of over 100 µM and a TGI (LOX IMVI; read-out: pTGI (converted)) of 29.5 µM. It also gave a growth at 100 µM (SK-MEL-5) of -78%, a growth at 10 µM [18] of 60% and a growth at 100 µM (NCI-H23 [19]) of -10%. For the same compound, the inhibition of growth at 10 µM (Malme-3M) was 14.6%, the growth at 100 µM (BT-549) was -47% and the growth at 1 µM (A549 [20]) was 46%. For the same compound, the growth at 100 µM (NCI-H522 [21]) was -20%, the GI50 (T47D; read-out: GI50) was 5.08 µM and the CC50 (T47D; [24]) was over 100 µM. For the same compound, the TGI (T47D; read-out: TGI) was over 100 µM, the GI50 (T47D; read-out: pGI50 (converted)) was 5.13 µM and the CC50 (T47D; [25]) was over 100 µM. The TGI (T47D; read-out: pTGI (converted)) was over 100 µM, the inhibition of growth at 10 µM (CCRF-CEM [22]) was 74.7% and the growth at 100 µM (CCRF-CEM [23]) was -14%.
